Experimental data taken from patent US7632933B2, “Corticotropin releasing factor 2 receptor agonists” (priority 2002, dated 2009).
Where two headings read alike, the source gives them in different places. Ends that are not written are not given here. Peptide text beside a SMILES is read from it.

What was measured:
CRF2R = target: T1, CRF2R (Homo sapiens, UniProt Q13324); test: CRF2R agonist activity (EC50 and Emax), called comparative CRF binding; type: cell-based; settings: CRF2R
T1 sequence (Q13324 1-411): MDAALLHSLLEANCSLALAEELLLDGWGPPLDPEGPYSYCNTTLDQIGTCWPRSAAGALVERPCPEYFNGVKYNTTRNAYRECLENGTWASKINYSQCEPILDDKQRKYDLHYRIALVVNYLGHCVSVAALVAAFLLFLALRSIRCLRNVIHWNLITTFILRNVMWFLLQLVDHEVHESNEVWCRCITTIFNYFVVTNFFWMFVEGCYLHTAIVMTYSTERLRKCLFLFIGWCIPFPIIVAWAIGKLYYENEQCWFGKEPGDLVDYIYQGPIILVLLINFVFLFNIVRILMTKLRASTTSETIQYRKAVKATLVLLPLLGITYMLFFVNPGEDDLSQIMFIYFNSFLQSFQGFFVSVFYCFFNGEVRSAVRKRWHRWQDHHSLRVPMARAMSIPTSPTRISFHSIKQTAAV
Summary of the method: (§1)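 Agonism measured through CRE-linked reporter expression or lysate cAMP after peptide treatment of CRF1R- or CRF2R-expressing cells, compared against vehicle-treated cells; background from a co-expressed non-target CRFR is subtracted.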

CRF1R = target: T2, CRF1R (Homo sapiens, UniProt P34998); test: CRF1R agonist activity (EC50 and Emax), called comparative CRF binding; type: cell-based; settings: CRF1R
T2 sequence (P34998 24-415): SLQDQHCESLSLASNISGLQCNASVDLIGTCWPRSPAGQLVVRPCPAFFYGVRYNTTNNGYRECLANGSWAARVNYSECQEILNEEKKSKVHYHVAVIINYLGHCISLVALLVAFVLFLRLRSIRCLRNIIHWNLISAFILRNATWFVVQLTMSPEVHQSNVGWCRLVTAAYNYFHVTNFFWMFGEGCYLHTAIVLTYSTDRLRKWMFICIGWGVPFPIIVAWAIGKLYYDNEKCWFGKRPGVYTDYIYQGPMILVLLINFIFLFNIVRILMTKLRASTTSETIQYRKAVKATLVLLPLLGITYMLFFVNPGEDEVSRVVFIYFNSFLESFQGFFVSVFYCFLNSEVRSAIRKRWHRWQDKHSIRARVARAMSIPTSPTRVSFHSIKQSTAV
Summary of the method: as §1

Compound	EC50 (CRF2R; read-out: CRF2R EC50) [nM]	EC50 (CRF1R; read-out: CRF1R EC50) [nM]	further results
SQEPPISLDLPLQLLREVLEMTKADQLAQQAHSNRKLLDIA-NH2 [compound 95]	≥ 100	≥ 100	–
SQEPPISLDLPFELLREVLEMTKADQLAQQAHSNRKLLDIA-NH2 [compound 97]	≥ 100	≥ 100	–
SEEPPISLDLTFHLLREVLEMARAEQLAQQAHTNARILARV-NH2 [compound 161]	> 100	> 100	–
SQEPPISLDLPFYLLREVLEMTKADQLAQQAHSNRKLLDIA-NH2 [compound 96]	≥ 100	≥ 100	–
SQEPPISLDLPLYLLREVLEMTKADQLAQQAHSNRKLLDIA-NH2 [compound 101]	≥ 100	≥ 100	–
SQEPPISLDLPTHLLREVLEMTKADQLAQQAHSNRKLLDIA-NH2 [compound 99]	≥ 100	≥ 100	–
NDDPPISIDLPYYLLRNMIEMARIENEREQAGLNAKYLAEV-NH2 [compound 267]	≥ 100	≥ 1000	–
NDDPPISIDLPLILLRNMIEMARIENEREQAGLNAKYLAEV-NH2 [compound 269]	≥ 100	≥ 1000	–
CC[C@H](C)[C@H](N)C(=O)N[C@H](C(=O)N[C@@H](CC(C)C)C(=O)N[C@@H](CO)C(=O)N[C@@H](CC(C)C)C(=O)N[C@@H](CC(=O)O)C(=O)N[C@H](C(=O)N1CCC[C@H]1C(=O)N[C@H](C(=O)NCC(=O)N[C@@H](CC(C)C)C(=O)N[C@@H](CC(C)C)C(=O)N[C@@H](CCC(N)=O)C(=O)N[C@H](C(=O)N[C@@H](CC(C)C)C(=O)N[C@@H](CC(C)C)C(=O)N[C@@H](CCC(=O)O)C(=O)N[C@@H](CCC(N)=O)C(=O)N[C@@H](C)C(=O)N[C@@H](CCCNC(=N)N)C(=O)N[C@@H](Cc1c[nH]cn1)C(=O)N[C@@H](C)C(=O)N[C@@H](Cc1c[nH]cn1)C(=O)N[C@@H](C)C(=O)N[C@@H](Cc1c[nH]cn1)C(=O)N[C@@H](C)C(=O)N[C@@H](Cc1c[nH]cn1)C(=O)N[C@@H](C)C(=O)N[C@@H](Cc1c[nH]cn1)C(=O)N[C@@H](C)C(=O)N[C@@H](CCC(N)=O)C(=O)N[C@@H](C)C(=O)N[C@@H](Cc1c[nH]cn1)C(=O)N[C@H](C(=O)N[C@@H](CC(C)C)C(=O)N[C@@H](C)C(=O)N[C@@H](Cc1c[nH]cn1)C(=O)N[C@H](C(N)=O)C(C)C)[C@@H](C)CC)[C@@H](C)CC)[C@@H](C)CC)C(C)C)C(C)C [compound 369] (H-IVLSLDVPIGLLQILLEQARHAHAHAHAHAQAHILAHV-NH2)	≥ 100	≥ 1000	–
CC[C@H](C)[C@H](N)C(=O)N[C@H](C(=O)N[C@@H](CC(C)C)C(=O)N[C@@H](CO)C(=O)N[C@@H](CC(C)C)C(=O)N[C@@H](CC(=O)O)C(=O)N[C@H](C(=O)N1CCC[C@H]1C(=O)N[C@H](C(=O)NCC(=O)N[C@@H](CC(C)C)C(=O)N[C@@H](CC(C)C)C(=O)N[C@@H](CCC(N)=O)C(=O)N[C@H](C(=O)N[C@@H](CC(C)C)C(=O)N[C@@H](CC(C)C)C(=O)N[C@@H](CCC(=O)O)C(=O)N[C@@H](CCC(N)=O)C(=O)N[C@@H](C)C(=O)N[C@@H](CCCNC(=N)N)C(=O)N[C@@H](C)C(=O)N[C@@H](CCCNC(=N)N)C(=O)N[C@@H](C)C(=O)N[C@@H](C)C(=O)N[C@@H](CCCNC(=N)N)C(=O)N[C@@H](CCC(=O)O)C(=O)N[C@@H](CCC(N)=O)C(=O)N[C@@H](C)C(=O)N[C@H](C(=O)N[C@H](C(=O)N[C@@H](CCC(N)=O)C(=O)N[C@@H](C)C(=O)N[C@@H](CCCNC(=N)N)C(=O)N[C@H](C(=O)N[C@@H](CC(C)C)C(=O)N[C@@H](C)C(=O)N[C@@H](CCCNC(=N)N)C(=O)N[C@H](C(N)=O)C(C)C)[C@@H](C)CC)[C@@H](C)O)[C@@H](C)O)[C@@H](C)CC)[C@@H](C)CC)C(C)C)C(C)C [compound 9] (H-IVLSLDVPIGLLQILLEQARARAAREQATTQARILARV-NH2)	≥ 100	≥ 100	–
CC[C@H](C)[C@H](N)C(=O)N[C@H](C(=O)N[C@@H](CC(C)C)C(=O)N[C@@H](CO)C(=O)N[C@@H](CC(C)C)C(=O)N[C@@H](CC(=O)O)C(=O)N[C@H](C(=O)N1CCC[C@H]1C(=O)N[C@H](C(=O)NCC(=O)N[C@@H](CC(C)C)C(=O)N[C@@H](CC(C)C)C(=O)N[C@@H](CCC(N)=O)C(=O)N[C@H](C(=O)N[C@@H](CC(C)C)C(=O)N[C@@H](CC(C)C)C(=O)N[C@@H](CCC(=O)O)C(=O)N[C@@H](CCC(N)=O)C(=O)N[C@@H](C)C(=O)N[C@@H](CCCNC(=N)N)C(=O)N[C@@H](C)C(=O)N[C@@H](C)C(=O)N[C@@H](C)C(=O)N[C@@H](CCCNC(=N)N)C(=O)N[C@@H](CCC(=O)O)C(=O)N[C@@H](CCC(N)=O)C(=O)N[C@@H](C)C(=O)N[C@H](C(=O)N[C@H](C(=O)N[C@@H](CC(N)=O)C(=O)N[C@@H](C)C(=O)N[C@@H](CCCNC(=N)N)C(=O)N[C@H](C(=O)N[C@@H](CC(C)C)C(=O)N[C@@H](C)C(=O)N[C@@H](CCCNC(=N)N)C(=O)N[C@H](C(N)=O)C(C)C)[C@@H](C)CC)[C@@H](C)O)[C@@H](C)O)[C@@H](C)CC)[C@@H](C)CC)C(C)C)C(C)C [compound 141] (H-IVLSLDVPIGLLQILLEQARAAAREQATTNARILARV-NH2)	> 100	> 100	–
SQEPPISLDLTIHLLREVLEMTKADQLAQQAHSNRKLLDIA-NH2 [compound 87]	≥ 100	≥ 100	–
NDDPPISIDLPTYLLRNMIEMARIENEREQAGLNAKYLAEV-NH2 [compound 266]	≥ 100	≥ 1000	–
SEEPPISLDVPIGLLQEVLEMARAEQLAQQAHSNRKLMEII-NH2 [compound 162]	> 100	> 100	–
CC[C@H](C)[C@H](N)C(=O)N[C@H](C(=O)N[C@@H](CC(C)C)C(=O)N[C@@H](CO)C(=O)N[C@@H](CC(C)C)C(=O)N[C@@H](CC(=O)O)C(=O)N[C@H](C(=O)N1CCC[C@H]1C(=O)N[C@H](C(=O)NCC(=O)N[C@@H](CC(C)C)C(=O)N[C@@H](CC(C)C)C(=O)N[C@@H](CCC(N)=O)C(=O)N[C@H](C(=O)N[C@@H](CC(C)C)C(=O)N[C@@H](CC(C)C)C(=O)N[C@@H](CCC(=O)O)C(=O)N[C@@H](CCC(N)=O)C(=O)N[C@H](C(=O)N[C@@H](CCCCN)C(=O)N[C@@H](C)C(=O)N[C@@H](CCCNC(=N)N)C(=O)N[C@@H](C)C(=O)N[C@@H](C)C(=O)N[C@@H](CCCNC(=N)N)C(=O)N[C@@H](CCC(=O)O)C(=O)N[C@@H](CCC(N)=O)C(=O)N[C@@H](C)C(=O)N[C@H](C(=O)N[C@H](C(=O)N[C@@H](CC(N)=O)C(=O)N[C@@H](C)C(=O)N[C@@H](CCCNC(=N)N)C(=O)N[C@H](C(=O)N[C@@H](CC(C)C)C(=O)N[C@@H](C)C(=O)N[C@@H](CCCNC(=N)N)C(=O)N[C@H](C(N)=O)C(C)C)[C@@H](C)CC)[C@@H](C)O)[C@@H](C)O)[C@@H](C)O)[C@@H](C)CC)[C@@H](C)CC)C(C)C)C(C)C [compound 129] (H-IVLSLDVPIGLLQILLEQTKARAAREQATTNARILARV-NH2)	3.83	–	CRF2R (Emax %) (CRF2R; Emax): (92) %; CRF1R (Emax %) (CRF1R; Emax): (12) %
CC[C@H](C)[C@H](N)C(=O)N[C@H](C(=O)N[C@@H](CC(C)C)C(=O)N[C@@H](CO)C(=O)N[C@@H](CC(C)C)C(=O)N[C@@H](CC(=O)O)C(=O)N[C@H](C(=O)N1CCC[C@H]1C(=O)N[C@H](C(=O)NCC(=O)N[C@@H](CC(C)C)C(=O)N[C@@H](CC(C)C)C(=O)N[C@@H](CCC(N)=O)C(=O)N[C@H](C(=O)N[C@@H](CC(C)C)C(=O)N[C@@H](CC(C)C)C(=O)N[C@@H](CCC(=O)O)C(=O)N[C@@H](CCC(N)=O)C(=O)N[C@@H](C)C(=O)N[C@@H](C)C(=O)N[C@@H](C)C(=O)N[C@@H](C)C(=O)N[C@@H](CCCNC(=N)N)C(=O)N[C@@H](CCC(=O)O)C(=O)N[C@@H](CCC(N)=O)C(=O)N[C@@H](C)C(=O)N[C@H](C(=O)N[C@H](C(=O)N[C@@H](CC(N)=O)C(=O)N[C@@H](C)C(=O)N[C@@H](CCCNC(=N)N)C(=O)N[C@H](C(=O)N[C@@H](CC(C)C)C(=O)N[C@@H](C)C(=O)N[C@@H](CCCNC(=N)N)C(=O)N[C@H](C(N)=O)C(C)C)[C@@H](C)CC)[C@@H](C)O)[C@@H](C)O)[C@@H](C)CC)[C@@H](C)CC)C(C)C)C(C)C [compound 134] (H-IVLSLDVPIGLLQILLEQAAAAREQATTNARILARV-NH2)	–	–	EC50 (CRF2R; CRF2R EC50 (nM)): > 100 nM; EC50 (CRF1R; CRF1R EC50 (nM)): > 100 nM
SQEPPISLDLPIHLLREVLEMTKADQLAQQAHSNRKLLDIA-NH2 [compound 94]	≥ 100	≥ 100	–
